Results taken from US20250122183A1 (Pfizer Inc., priority 2023, published 2025).

Key:
Format in all cases: biochemical
KAT6A Full length enzyme = KAT6A Full length enzyme (Homo sapiens (Human), UniProt Q92794); experiment: KAT6A assay (SAMDI-MS acetylation of H3 1-21 peptide); details: Morrison equation fit; replicate number in parentheses; read-out: KAT6A Ki (nM) (replicate number)
[1] = target: KAT7+JADE1+EAF6+ING5 4 protein complex (Homo sapiens (Human), UniProt O95251); experiment: KAT7 JADE1 assay (SAMDI-MS acetylation of H3 1-21 peptide); details: Morrison equation fit; replicate number in parentheses; read-out: KAT7 JADE1 Ki (nM) (replicate number)
KAT8 Full length enzyme = KAT8 Full length enzyme (Homo sapiens (Human), UniProt Q9H7Z6); experiment: KAT8 assay (SAMDI-MS acetylation of H3 1-21 peptide); details: Morrison equation fit; replicate number in parentheses; read-out: KAT8 Ki (nM) (replicate number)
KAT8 Full length enzyme, sequence (Q9H7Z6 whole entry): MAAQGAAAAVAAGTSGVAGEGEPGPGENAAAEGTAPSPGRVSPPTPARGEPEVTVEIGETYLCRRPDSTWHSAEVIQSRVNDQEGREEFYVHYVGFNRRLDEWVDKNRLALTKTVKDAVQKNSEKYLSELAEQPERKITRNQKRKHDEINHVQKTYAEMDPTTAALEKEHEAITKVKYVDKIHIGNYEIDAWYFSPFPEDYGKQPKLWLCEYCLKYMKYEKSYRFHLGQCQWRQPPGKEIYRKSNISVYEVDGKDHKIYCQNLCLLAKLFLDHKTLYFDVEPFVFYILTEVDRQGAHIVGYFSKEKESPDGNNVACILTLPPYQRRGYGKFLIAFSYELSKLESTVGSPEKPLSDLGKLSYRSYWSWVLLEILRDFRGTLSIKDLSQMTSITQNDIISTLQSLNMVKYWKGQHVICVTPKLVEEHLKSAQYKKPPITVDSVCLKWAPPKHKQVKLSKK

KAT5 Full length enzyme = KAT5 Full length enzyme (Homo sapiens (Human), UniProt Q92993); experiment: KAT5 assay (SAMDI-MS acetylation of H4 1-21 peptide); details: Morrison equation fit; replicate number in parentheses; read-out: KAT5 Ki (nM) (replicate number)
KAT5 Full length enzyme, sequence (Q92993 whole entry): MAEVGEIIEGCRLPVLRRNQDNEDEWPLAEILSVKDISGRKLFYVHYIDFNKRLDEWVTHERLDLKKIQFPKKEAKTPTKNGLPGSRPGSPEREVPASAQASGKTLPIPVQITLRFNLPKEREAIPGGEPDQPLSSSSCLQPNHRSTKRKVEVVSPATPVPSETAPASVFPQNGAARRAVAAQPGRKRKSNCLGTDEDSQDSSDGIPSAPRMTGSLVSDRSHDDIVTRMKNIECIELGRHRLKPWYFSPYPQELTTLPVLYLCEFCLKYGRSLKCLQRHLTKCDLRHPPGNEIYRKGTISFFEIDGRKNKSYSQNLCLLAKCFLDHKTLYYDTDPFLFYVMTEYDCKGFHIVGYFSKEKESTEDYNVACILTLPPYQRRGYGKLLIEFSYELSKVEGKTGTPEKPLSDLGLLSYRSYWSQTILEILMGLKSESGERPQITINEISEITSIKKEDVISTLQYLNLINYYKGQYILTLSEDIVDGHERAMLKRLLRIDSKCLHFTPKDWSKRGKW

KAT6A Full length enzyme, sequence (Q92794 other isoform, or with tags, fused parts or gaps): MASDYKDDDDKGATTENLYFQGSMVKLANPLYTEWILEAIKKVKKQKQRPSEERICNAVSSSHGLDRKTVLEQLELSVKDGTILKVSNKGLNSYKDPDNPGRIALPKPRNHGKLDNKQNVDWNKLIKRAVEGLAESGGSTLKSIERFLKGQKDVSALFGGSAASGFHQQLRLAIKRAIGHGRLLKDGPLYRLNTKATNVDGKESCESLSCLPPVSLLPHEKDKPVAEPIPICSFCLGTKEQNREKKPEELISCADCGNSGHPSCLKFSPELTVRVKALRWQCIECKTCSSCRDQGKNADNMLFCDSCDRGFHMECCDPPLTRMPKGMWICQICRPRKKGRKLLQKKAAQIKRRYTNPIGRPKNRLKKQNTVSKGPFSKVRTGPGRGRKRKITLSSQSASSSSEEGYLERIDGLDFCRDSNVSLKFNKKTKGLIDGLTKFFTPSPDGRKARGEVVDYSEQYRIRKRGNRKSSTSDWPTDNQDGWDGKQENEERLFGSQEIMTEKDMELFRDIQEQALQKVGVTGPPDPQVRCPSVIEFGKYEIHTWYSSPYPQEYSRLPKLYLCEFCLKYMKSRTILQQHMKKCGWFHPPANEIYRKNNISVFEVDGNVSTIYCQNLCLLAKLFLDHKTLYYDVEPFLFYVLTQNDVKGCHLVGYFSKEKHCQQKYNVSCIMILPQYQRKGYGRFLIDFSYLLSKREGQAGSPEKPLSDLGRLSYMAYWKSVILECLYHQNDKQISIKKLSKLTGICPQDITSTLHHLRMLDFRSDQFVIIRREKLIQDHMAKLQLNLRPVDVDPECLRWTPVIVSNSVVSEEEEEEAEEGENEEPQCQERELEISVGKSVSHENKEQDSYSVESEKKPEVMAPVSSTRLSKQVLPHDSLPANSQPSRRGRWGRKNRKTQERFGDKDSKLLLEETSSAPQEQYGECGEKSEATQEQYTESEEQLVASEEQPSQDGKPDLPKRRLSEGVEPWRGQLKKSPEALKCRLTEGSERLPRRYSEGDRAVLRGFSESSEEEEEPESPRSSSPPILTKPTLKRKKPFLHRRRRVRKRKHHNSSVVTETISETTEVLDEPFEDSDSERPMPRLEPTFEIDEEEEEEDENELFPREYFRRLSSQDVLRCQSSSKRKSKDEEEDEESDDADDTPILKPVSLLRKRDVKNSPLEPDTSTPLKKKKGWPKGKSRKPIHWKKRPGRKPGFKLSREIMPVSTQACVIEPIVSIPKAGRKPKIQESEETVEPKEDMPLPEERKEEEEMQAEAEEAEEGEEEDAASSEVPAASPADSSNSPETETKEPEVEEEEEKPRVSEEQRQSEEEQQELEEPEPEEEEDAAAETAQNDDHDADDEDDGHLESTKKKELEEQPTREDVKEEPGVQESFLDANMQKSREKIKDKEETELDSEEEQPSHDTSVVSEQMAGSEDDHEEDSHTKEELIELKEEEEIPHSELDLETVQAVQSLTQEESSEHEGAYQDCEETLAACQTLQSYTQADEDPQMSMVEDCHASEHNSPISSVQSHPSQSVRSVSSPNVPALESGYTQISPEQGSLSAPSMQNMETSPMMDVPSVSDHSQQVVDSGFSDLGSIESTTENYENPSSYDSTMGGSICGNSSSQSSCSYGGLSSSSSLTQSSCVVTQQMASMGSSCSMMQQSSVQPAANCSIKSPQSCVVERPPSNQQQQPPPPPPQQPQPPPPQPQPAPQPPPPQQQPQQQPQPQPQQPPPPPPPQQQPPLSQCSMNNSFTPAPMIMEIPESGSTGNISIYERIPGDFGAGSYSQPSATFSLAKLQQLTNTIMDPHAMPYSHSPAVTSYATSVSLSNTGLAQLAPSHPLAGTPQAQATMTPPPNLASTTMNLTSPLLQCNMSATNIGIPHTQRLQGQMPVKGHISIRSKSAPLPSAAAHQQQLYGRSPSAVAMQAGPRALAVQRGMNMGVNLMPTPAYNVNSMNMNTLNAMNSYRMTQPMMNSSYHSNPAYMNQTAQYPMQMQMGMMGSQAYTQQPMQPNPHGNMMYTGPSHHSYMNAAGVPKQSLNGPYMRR

CCn1nc(Nc2cc3onc(NS(=O)(=O)c4c(OC)cccc4OC)c3cc2OC)cc1C [Example 74, N-{6-[(1-ethyl-5-methyl-1H-pyrazol-3-yl)amino]-5-methoxy-1,2-benzoxazol-3-yl}-2,6-dimethoxybenzene-1-sulfonamide]
Ki (KAT6A Full length enzyme): 5.2 nM | Ki [1]: 483 nM | Ki (KAT8 Full length enzyme): > 13000 nM | Ki (KAT5 Full length enzyme): 2160 nM

CCn1cnc(Nc2cc3onc(NS(=O)(=O)c4c(OC)cccc4OC)c3cc2OC)c1 [Example 75, N-{6-[(1-ethyl-1H-imidazol-4-yl)amino]-5-methoxy-1,2-benzoxazol-3-yl}-2,6-dimethoxybenzene-1-sulfonamide]
Ki (KAT6A Full length enzyme): 22.3 nM | Ki [1]: 501 nM | Ki (KAT8 Full length enzyme): > 11200 nM | Ki (KAT5 Full length enzyme): 2210 nM

CCOc1cc(F)ccc1S(=O)(=O)Nc1noc2cc(Nc3cc(C4CC4)n[nH]3)c(F)c(OC)c12 [Example 76, N-{6-[(3-cyclopropyl-1H-pyrazol-5-yl)amino]-5-fluoro-4-methoxy-1,2-benzoxazol-3-yl}-2-ethoxy-4-fluorobenzene-1-sulfonamide]
Ki (KAT6A Full length enzyme): 11.1 nM | Ki [1]: 92 nM | Ki (KAT8 Full length enzyme): > 13000 nM | Ki (KAT5 Full length enzyme): 1160 nM

COc1cccc(OC2CC2)c1S(=O)(=O)Nc1noc2cc(Nc3cc(C4CC4)n[nH]3)c(F)c(OC)c12 [Example 80, 2-(cyclopropyloxy)-N-{6-[(5-cyclopropyl-1H-pyrazol-3-yl)amino]-5-fluoro-4-methoxy-1,2-benzoxazol-3-yl}-6-methoxybenzene-1-sulfonamide]
Ki (KAT6A Full length enzyme): 3.8 nM | Ki [1]: 32.3 nM | Ki (KAT8 Full length enzyme): 7760 nM | Ki (KAT5 Full length enzyme): 1450 nM

COc1cccc(F)c1S(=O)(=O)Nc1noc2cc(Nc3cc(C4CC4)n[nH]3)c(F)c(OC)c12 [Example 81, N-{6-[(3-cyclopropyl-1H-pyrazol-5-yl)amino]-5-fluoro-4-methoxy-1,2-benzoxazol-3-yl}-2-fluoro-6-methoxybenzene-1-sulfonamide]
Ki (KAT6A Full length enzyme): 3.5 nM | Ki [1]: 31.6 nM | Ki (KAT8 Full length enzyme): > 13000 nM | Ki (KAT5 Full length enzyme): 336 nM

COc1cc2c(NS(=O)(=O)c3c(OC)cccc3OC)noc2cc1Nc1cc(C2CCCC2)n[nH]1 [Example 85, N-{6-[(3-cyclopentyl-1H-pyrazol-5-yl)amino]-5-methoxy-1,2-benzoxazol-3-yl}-2,6-dimethoxybenzene-1-sulfonamide]
Ki (KAT6A Full length enzyme): 4.7 nM | Ki [1]: 33.4 nM | Ki (KAT8 Full length enzyme): 3380 nM | Ki (KAT5 Full length enzyme): 225 nM

COc1cc2c(NS(=O)(=O)c3c(OC)cccc3OC)noc2cc1Nc1cc(C(C)CCO)[nH]n1 (stereo not shown) [Example 88, N-(6-{[5-(4-hydroxybutan-2-yl)-1H-pyrazol-3-yl]amino}-5-methoxy-1,2-benzoxazol-3-yl)-2,6-dimethoxybenzene-1-sulfonamide]
Ki (KAT6A Full length enzyme): 27 nM | Ki [1]: 378 nM | Ki (KAT8 Full length enzyme): > 13000 nM | Ki (KAT5 Full length enzyme): 6020 nM

COc1cc2c(NS(=O)(=O)c3c(OC)cccc3OC)noc2cc1Nc1cc(Cl)n[nH]1 [Example 92, N-{6-[(3-chloro-1H-pyrazol-5-yl)amino]-5-methoxy-1,2-benzoxazol-3-yl}-2,6-dimethoxybenzene-1-sulfonamide]
Ki (KAT6A Full length enzyme): 1.3 nM | Ki [1]: 219 nM | Ki (KAT8 Full length enzyme): 2100 nM | Ki (KAT5 Full length enzyme): 867 nM

COc1cc2c(NS(=O)(=O)c3c(OC)cccc3OC)noc2cc1Nc1cc(C2(C)CC2)n[nH]1 [Example 94, 2,6-dimethoxy-N-(5-methoxy-6-{[3-(1-methylcyclopropyl)-1H-pyrazol-5-yl]amino}-1,2-benzoxazol-3-yl)benzene-1-sulfonamide]
Ki (KAT6A Full length enzyme): 6.3 nM | Ki [1]: 58.1 nM | Ki (KAT8 Full length enzyme): 5740 nM | Ki (KAT5 Full length enzyme): 193 nM

COc1cc2c(NS(=O)(=O)c3cc4ccccc4cc3OC)noc2cc1Nc1cc(C2CC2)n[nH]1 [Example 95, N-{6-[(3-cyclopropyl-1H-pyrazol-5-yl)amino]-5-methoxy-1,2-benzoxazol-3-yl}-3-methoxynaphthalene-2-sulfonamide]
Ki (KAT6A Full length enzyme): 0.1 nM | Ki [1]: 0.3 nM | Ki (KAT8 Full length enzyme): 77 nM | Ki (KAT5 Full length enzyme): 18.1 nM

COc1cc(F)ccc1S(=O)(=O)Nc1noc2cc(Nc3cc(C4CC4)n[nH]3)c(F)c(OC)c12 [Example 97, N-{6-[(3-cyclopropyl-1H-pyrazol-5-yl)amino]-5-fluoro-4-methoxy-1,2-benzoxazol-3-yl}-4-fluoro-2-methoxybenzene-1-sulfonamide]
Ki (KAT6A Full length enzyme): 9.8 nM | Ki [1]: 57.7 nM | Ki (KAT8 Full length enzyme): > 13000 nM | Ki (KAT5 Full length enzyme): 795 nM

COc1cccc(OC2CCC2)c1S(=O)(=O)Nc1noc2cc(Nc3cc(C4CC4)n[nH]3)c(F)c(OC)c12 [Example 98, 2-(cyclobutyloxy)-N-{6-[(3-cyclopropyl-1H-pyrazol-5-yl)amino]-5-fluoro-4-methoxy-1,2-benzoxazol-3-yl}-6-methoxybenzene-1-sulfonamide]
Ki (KAT6A Full length enzyme): 5.7 nM | Ki [1]: 74.6 nM | Ki (KAT8 Full length enzyme): > 13000 nM | Ki (KAT5 Full length enzyme): 3790 nM

COc1cc(F)c(F)cc1S(=O)(=O)Nc1noc2cc(Nc3cc(C4CC4)n[nH]3)c(F)c(OC)c12 [Example 100, N-{6-[(3-cyclopropyl-1H-pyrazol-5-yl)amino]-5-fluoro-4-methoxy-1,2-benzoxazol-3-yl}-4,5-difluoro-2-methoxybenzene-1-sulfonamide]
Ki (KAT6A Full length enzyme): 21.4 nM | Ki [1]: 86.6 nM | Ki (KAT8 Full length enzyme): > 13000 nM | Ki (KAT5 Full length enzyme): 1060 nM

CCOc1cc(C(F)F)ccc1S(=O)(=O)Nc1noc2cc(Nc3cc(C4CC4)n[nH]3)c(F)c(OC)c12 [Example 101, N-{6-[(3-cyclopropyl-1H-pyrazol-5-yl)amino]-5-fluoro-4-methoxy-1,2-benzoxazol-3-yl}-4-(difluoromethyl)-2-ethoxybenzene-1-sulfonamide]
Ki (KAT6A Full length enzyme): 5.3 nM | Ki [1]: 50.7 nM | Ki (KAT8 Full length enzyme): 10300 nM | Ki (KAT5 Full length enzyme): 1230 nM

COc1cc2c(NS(=O)(=O)c3c(OC)cccc3OC)noc2cc1Nc1ncccn1 [Example 102, 2,6-dimethoxy-N-{5-methoxy-6-[(pyrimidin-2-yl)amino]-1,2-benzoxazol-3-yl}benzene-1-sulfonamide]
Ki (KAT6A Full length enzyme): 1.9 nM | Ki [1]: 1440 nM | Ki (KAT8 Full length enzyme): > 19500 nM | Ki (KAT5 Full length enzyme): 5970 nM

COc1cc2c(NS(=O)(=O)c3c(OC)cccc3OC)noc2cc1Nc1cc(C2CC2)n(C)n1 [Example 103, N-{6-[(5-cyclopropyl-1-methyl-1H-pyrazol-3-yl)amino]-5-methoxy-1,2-benzoxazol-3-yl}-2,6-dimethoxybenzene-1-sulfonamide]
Ki (KAT6A Full length enzyme): 2.8 nM | Ki [1]: 47.4 nM | Ki (KAT8 Full length enzyme): 6010 nM | Ki (KAT5 Full length enzyme): 254 nM

COc1cc2c(NS(=O)(=O)c3c(OC)cccc3OC)noc2cc1Nc1cc(OC)n(C)n1 [Example 104, 2,6-dimethoxy-N-{5-methoxy-6-[(5-methoxy-1-methyl-1H-pyrazol-3-yl)amino]-1,2-benzoxazol-3-yl}benzene-1-sulfonamide]
Ki (KAT6A Full length enzyme): 5.6 nM | Ki [1]: 139 nM | Ki (KAT8 Full length enzyme): > 10900 nM | Ki (KAT5 Full length enzyme): 1040 nM

COc1cc2c(NS(=O)(=O)c3c(OC)cccc3OC)noc2cc1Nc1nccc(C)n1 [Example 105, 2,6-dimethoxy-N-{5-methoxy-6-[(4-methylpyrimidin-2-yl)amino]-1,2-benzoxazol-3-yl}benzene-1-sulfonamide]
Ki (KAT6A Full length enzyme): 9.7 nM | Ki [1]: 414 nM | Ki (KAT8 Full length enzyme): > 12700 nM | Ki (KAT5 Full length enzyme): 4120 nM

CCc1ccnc(Nc2cc3onc(NS(=O)(=O)c4c(OC)cccc4OC)c3cc2OC)n1 [Example 106, N-{6-[(4-ethylpyrimidin-2-yl)amino]-5-methoxy-1,2-benzoxazol-3-yl}-2,6-dimethoxybenzene-1-sulfonamide]
Ki (KAT6A Full length enzyme): 11.7 nM | Ki [1]: 410 nM | Ki (KAT8 Full length enzyme): 6430 nM | Ki (KAT5 Full length enzyme): 1990 nM

CCc1cnc(Nc2cc3onc(NS(=O)(=O)c4c(OC)cccc4OC)c3cc2OC)nc1 [Example 107, N-{6-[(5-ethylpyrimidin-2-yl)amino]-5-methoxy-1,2-benzoxazol-3-yl}-2,6-dimethoxybenzene-1-sulfonamide]
Ki (KAT6A Full length enzyme): 132 nM | Ki [1]: 6540 nM | Ki (KAT8 Full length enzyme): > 13000 nM | Ki (KAT5 Full length enzyme): 10400 nM

COc1cc2c(NS(=O)(=O)c3c(OC)cccc3OC)noc2cc1Nc1nc(C)cc(C)n1 [Example 108, N-{6-[(4,6-dimethylpyrimidin-2-yl)amino]-5-methoxy-1,2-benzoxazol-3-yl}-2,6-dimethoxybenzene-1-sulfonamide]
Ki (KAT6A Full length enzyme): 202 nM | Ki [1]: 3420 nM | Ki (KAT8 Full length enzyme): > 13000 nM | Ki (KAT5 Full length enzyme): 45000 nM

COc1cc2c(NS(=O)(=O)c3c(OC)cccc3OC)noc2cc1Nc1ncc(C)cn1 [Example 110, 2,6-dimethoxy-N-{5-methoxy-6-[(5-methylpyrimidin-2-yl)amino]-1,2-benzoxazol-3-yl}benzene-1-sulfonamide]
Ki (KAT6A Full length enzyme): 44.1 nM | Ki [1]: 2820 nM | Ki (KAT8 Full length enzyme): > 13000 nM | Ki (KAT5 Full length enzyme): 6610 nM

COc1cc2c(NS(=O)(=O)c3c(OC)cccc3OC)noc2cc1Nc1ccccn1 [Example 111, 2,6-dimethoxy-N-{5-methoxy-6-[(pyridin-2-yl)amino]-1,2-benzoxazol-3-yl}benzene-1-sulfonamide]
Ki (KAT6A Full length enzyme): 0.8 nM | Ki [1]: 400 nM | Ki (KAT8 Full length enzyme): > 13000 nM | Ki (KAT5 Full length enzyme): 1130 nM

COc1cc2c(NS(=O)(=O)c3c(OC)cccc3OC)noc2cc1Nc1cc2n(n1)CCC21CC1 [Example 112, N-{6-[(5′,6′-dihydrospiro[cyclopropane-1,4′-pyrrolo[1,2-b]pyrazol]-2′-yl)amino]-5-methoxy-1,2-benzoxazol-3-yl}-2,6-dimethoxybenzene-1-sulfonamide]
Ki (KAT6A Full length enzyme): 17.6 nM | Ki [1]: 238 nM | Ki (KAT8 Full length enzyme): > 13000 nM | Ki (KAT5 Full length enzyme): 689 nM

CCn1nc(Nc2cc3onc(NS(=O)(=O)c4c(OC)cccc4OC)c3cc2OC)cc1C1CC1 [Example 113, N-{6-[(5-cyclopropyl-1-ethyl-1H-pyrazol-3-yl)amino]-5-methoxy-1,2-benzoxazol-3-yl}-2,6-dimethoxybenzene-1-sulfonamide]
Ki (KAT6A Full length enzyme): 348 nM | Ki [1]: 9090 nM | Ki (KAT8 Full length enzyme): > 13000 nM | Ki (KAT5 Full length enzyme): 50000 nM
